Calls of active or inactive are those of the source.
Key:
[1] = target: T1, Polyadenylate-binding protein 1 (Homo sapiens, UniProt P11940); test: MLLE binding blockers, Cy5 peptide tracer – biochemical, fluorescence polarization, Cy5-PAM2 peptide, secondary, miRNA deadenylation inhibitor project, dose response (AID 602260); assay type: functional; details: read-out: IC50_Mean
[2] = target: Protein-tyrosine kinase 2-beta (Homo sapiens, UniProt Q14289);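 note: potency of inhibitors of PYK2 kinase phosphorylation of poly-GT substrate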
Major prion protein = Major prion protein (Homo sapiens, UniProt P04156); assay type: functional, cell-based
[3] = target: T1, Polyadenylate-binding protein 1; test: MLLE domain peptide-binding blockers, IC50 – biochemical, fluorescence polarization, FITC-PAM2 peptide, dose response (AID 602259); assay type: functional; details: read-out: IC50_Mean
[4] = target: T2, Histone-lysine N-methyltransferase NSD2 (Homo sapiens, UniProt O96028); assay type: biochemical
T2 sequence (O96028 whole entry): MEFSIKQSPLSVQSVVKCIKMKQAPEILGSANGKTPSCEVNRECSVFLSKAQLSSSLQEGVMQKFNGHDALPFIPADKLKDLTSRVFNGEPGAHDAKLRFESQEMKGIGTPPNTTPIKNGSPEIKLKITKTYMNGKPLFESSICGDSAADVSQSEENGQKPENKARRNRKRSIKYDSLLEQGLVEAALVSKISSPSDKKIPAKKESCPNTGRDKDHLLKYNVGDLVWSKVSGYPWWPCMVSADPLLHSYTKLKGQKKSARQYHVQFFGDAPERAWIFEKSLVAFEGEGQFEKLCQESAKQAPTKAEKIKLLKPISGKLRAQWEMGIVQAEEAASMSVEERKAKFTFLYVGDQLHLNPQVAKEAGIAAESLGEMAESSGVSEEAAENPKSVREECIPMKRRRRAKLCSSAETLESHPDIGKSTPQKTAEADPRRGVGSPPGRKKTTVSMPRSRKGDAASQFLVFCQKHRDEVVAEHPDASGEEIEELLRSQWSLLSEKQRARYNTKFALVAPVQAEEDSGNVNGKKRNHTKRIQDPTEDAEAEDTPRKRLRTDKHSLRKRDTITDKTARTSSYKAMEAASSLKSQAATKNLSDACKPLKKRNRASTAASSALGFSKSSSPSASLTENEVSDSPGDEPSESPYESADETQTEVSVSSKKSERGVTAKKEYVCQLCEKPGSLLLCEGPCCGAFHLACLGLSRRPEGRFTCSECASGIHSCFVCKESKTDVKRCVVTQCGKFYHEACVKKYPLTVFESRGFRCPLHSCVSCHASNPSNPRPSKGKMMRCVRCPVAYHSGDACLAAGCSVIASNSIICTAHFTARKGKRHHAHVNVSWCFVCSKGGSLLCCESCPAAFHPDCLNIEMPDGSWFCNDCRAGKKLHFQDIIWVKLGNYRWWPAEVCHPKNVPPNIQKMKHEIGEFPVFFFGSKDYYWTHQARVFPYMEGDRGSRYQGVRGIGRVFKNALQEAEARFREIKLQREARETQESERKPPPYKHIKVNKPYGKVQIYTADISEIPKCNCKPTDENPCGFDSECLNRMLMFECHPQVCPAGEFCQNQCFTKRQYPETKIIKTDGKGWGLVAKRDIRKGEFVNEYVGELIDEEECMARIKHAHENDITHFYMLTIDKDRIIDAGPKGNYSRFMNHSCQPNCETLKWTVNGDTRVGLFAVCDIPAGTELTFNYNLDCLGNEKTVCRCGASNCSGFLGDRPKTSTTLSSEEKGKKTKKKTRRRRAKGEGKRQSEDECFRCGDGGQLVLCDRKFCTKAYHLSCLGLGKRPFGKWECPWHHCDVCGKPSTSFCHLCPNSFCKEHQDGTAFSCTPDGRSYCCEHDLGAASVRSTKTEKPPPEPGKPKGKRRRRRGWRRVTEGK

[5] = fluconazole-exposed Candida albicans growth modulators – fluorescence, retest, confirmation (AID 2467); assay type: functional, cell-based
[6] = NIH-3T3 fibroblast cytotoxicity, dose response, cytotoxicity control, cell-based, fluorescence, Alamar Blue, secondary assay (AID 2327); assay type: functional;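 note: NIH-3T3 mouse fibroblasts cultured with fluconazole at 8 µg/mL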
[7] = target: T3, Zinc finger protein mex-5 (Caenorhabditis elegans, UniProt Q9XUB2); test: potency of MEX-5 RNA-binding blockers – biochemical, C. elegans, fluorescence polarization, dose response (AID 1960)
T3 sequence (Q9XUB2 whole entry): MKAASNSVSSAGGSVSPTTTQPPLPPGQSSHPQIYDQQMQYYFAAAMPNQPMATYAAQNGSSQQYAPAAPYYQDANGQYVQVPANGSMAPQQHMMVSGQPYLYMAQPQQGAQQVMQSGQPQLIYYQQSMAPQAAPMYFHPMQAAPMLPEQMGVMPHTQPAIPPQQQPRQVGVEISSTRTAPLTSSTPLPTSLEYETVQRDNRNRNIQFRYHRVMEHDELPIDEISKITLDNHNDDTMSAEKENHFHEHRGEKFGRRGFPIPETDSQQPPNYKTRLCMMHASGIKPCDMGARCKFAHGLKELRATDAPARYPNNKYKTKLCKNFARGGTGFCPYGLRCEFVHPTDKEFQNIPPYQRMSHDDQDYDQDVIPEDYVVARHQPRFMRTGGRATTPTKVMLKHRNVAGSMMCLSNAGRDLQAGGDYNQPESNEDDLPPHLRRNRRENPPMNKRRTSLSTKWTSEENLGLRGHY

Caspase-6 = target: T4, Caspase-6 (Homo sapiens, UniProt P55212); test: inhibition of CASP6 peptide cleavage – biochemical, VEID-R110 fluorescence, cherry-pick, dose response (AID 720632)
T4 sequence (P55212 whole entry): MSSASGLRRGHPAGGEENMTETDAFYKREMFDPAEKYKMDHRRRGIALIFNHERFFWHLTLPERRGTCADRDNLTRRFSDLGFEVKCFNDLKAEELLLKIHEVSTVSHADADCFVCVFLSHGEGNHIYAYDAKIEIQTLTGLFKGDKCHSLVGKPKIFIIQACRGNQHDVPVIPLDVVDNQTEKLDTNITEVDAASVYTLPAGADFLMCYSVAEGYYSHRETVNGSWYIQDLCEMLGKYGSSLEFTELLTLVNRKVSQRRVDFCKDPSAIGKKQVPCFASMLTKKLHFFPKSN

Large T antigen = Large T antigen (Simian virus 40, UniProt P03070); assay type: functional, Betapolyomavirus macacae;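 note: Confirmatory-stage PubChem screen for compounds that inhibit SV40 T antigen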
[8] = target: T5, RNA-binding protein pos-1 (Caenorhabditis elegans, UniProt G5EF15); test: disruptors of C. elegans POS-1 RNA interaction – biochemical, fluorescence polarization, dose response (AID 1964);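 note: purified POS-1 fused to maltose binding protein made in E. coli; potency of compounds blocking POS-1 binding to fluorescent RNA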
T5 sequence (G5EF15 whole entry): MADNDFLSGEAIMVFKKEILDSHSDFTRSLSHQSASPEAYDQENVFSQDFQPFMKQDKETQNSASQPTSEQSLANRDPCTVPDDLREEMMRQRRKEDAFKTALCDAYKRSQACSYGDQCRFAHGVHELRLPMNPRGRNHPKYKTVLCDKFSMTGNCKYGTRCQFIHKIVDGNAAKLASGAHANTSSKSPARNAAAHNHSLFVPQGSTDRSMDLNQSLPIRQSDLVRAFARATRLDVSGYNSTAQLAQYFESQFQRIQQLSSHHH

[9] = HEK-293T cell viability reduction – luminescence, B-cell screen hits, cytotoxicity control for BCR NF-kB inhibitor project, dose response (AID 489021); assay type: functional, cell-based;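 note: HEK-293T cells carrying an NF-kB luciferase reporter; cells exposed to compound for about 14 hours before viability readout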
H9c2 = test: cells; assay type: functional, cell-based; details: Rattus norvegicus, H9c2, Myocardium;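 note: confirmatory concentration-response retest of ultra-high-throughput screening hits for modulation of myocardial damage; cell death induced by hydrogen peroxide oxidative stress; compound pretreatment for 60 min then peroxide exposure for 2 h; potency is for protecting the cells against peroxide damage rather than for killing them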
[10] = reduced cellular PGC1a acetyl-lysine signal – cell-based, cherry-picked samples, dose response (AID 720514); assay type: functional;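 note: potency may reflect raised or lowered acetylation signal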
[11] = target: T6, Tyrosyl-DNA phosphodiesterase 2 (Homo sapiens, UniProt O95551); test: potency against TDP2 phosphodiesterase activity – biochemical, epi absorbance, IC50, dose response (AID 743297)
T6 sequence (O95551 whole entry): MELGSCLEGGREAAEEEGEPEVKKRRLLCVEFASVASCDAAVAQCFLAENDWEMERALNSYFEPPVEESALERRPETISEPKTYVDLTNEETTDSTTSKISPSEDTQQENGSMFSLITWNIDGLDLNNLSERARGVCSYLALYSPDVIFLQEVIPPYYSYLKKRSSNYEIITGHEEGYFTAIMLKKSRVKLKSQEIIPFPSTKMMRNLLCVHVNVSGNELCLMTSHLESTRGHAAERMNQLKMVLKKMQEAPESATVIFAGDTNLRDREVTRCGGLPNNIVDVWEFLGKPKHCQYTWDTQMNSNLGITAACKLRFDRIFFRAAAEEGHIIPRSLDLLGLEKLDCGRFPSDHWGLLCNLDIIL

[12] = IGROV1 cell killing – plate reader, dry powder samples, PAX8 inhibitor project, dose response (AID 743043); assay type: functional, cell-based; details: IGROV-1
[13] = OVCAR-3 cell viability loss – plate reader, dry powder samples, PAX8 inhibitor project, dose response (AID 743044); assay type: functional, cell-based
Paired box protein Pax-8 = Paired box protein Pax-8 (Homo sapiens, UniProt Q06710); test: PAX8 transcriptional activity inhibition in RMG-I – RMG-I cells, luciferase, cherry-pick, dose response (AID 687027); assay type: functional, cell-based;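 note: luciferase reporter driven by Pax8 target thyroperoxidase promoter measured by SteadyGlo luminescence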
[14] = OVCAR8 cell viability loss – plate reader, dry powder samples, PAX8 project, dose response (AID 743197); assay type: functional, cell-based; details: OVCAR-8
[15] = Dd2 parasite growth inhibition in erythrocytes – SYBR Green, dry powder samples, set 9, dose response (AID 1159568); assay type: functional, cell-based
Cytochrome P450 3A4 = Cytochrome P450 3A4 (Homo sapiens, UniProt P08684); details: Potency;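 note: confirmatory qHTS run detecting inhibitors and substrates of CYP3A4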
[16] = blockers of bursicon-stimulated LGR2 cAMP reporter – cell-based, HEK293, CRE-luciferase reporter, cherry pick, set 2, dose response (AID 743343); assay type: functional;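 note: transfected cells were stimulated with diluted bursicon conditioned medium after compound addition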
[17] = blockade of melanocortin 4 receptor signaling – cell-based, plate reader, cherry pick, counter-screen for LGR2 antagonist project, dose response (AID 743444); assay type: functional;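 note: transfected HEK 293 cells stimulated with alpha-MSH peptide; potency of inhibitors of the alpha-MSH evoked signal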

Cc1nnc(NC(=O)CSc2nc(C(C)C)nc3ccccc23)s1
IC50 (cells): > 138 µM (inactive) | IC50 [1]: > 66 µM (inactive) | IC50 [2]: > 69.5 µM (not active) | IC50 (Major prion protein): 1.83 µM (active) | IC50 [3]: > 66 µM (inactive)

O=C1NC(=S)NC(=O)C1=NNc1cc(S(=O)(=O)Nc2ccc(Cl)cc2)ccc1Cl
AC50 [4]: > 20 µM (inactive)

Cc1cc(SC(C)C(=O)O)nc2ccccc12 (stereo not given)
IC50 (cells): > 138 µM (inactive) | IC50 (Major prion protein): 8.85 µM (active)

CCOc1cc(/C=C2\C(=O)NN(c3ccccc3)C2=O)cc([N+](=O)[O-])c1O
EC50 [5]: > 38 µM (not active) | EC50 [6]: > 160 µM (inactive) | EC50 [7]: 36.2 µM (active) | AC50 [4]: > 20 µM (inactive) | AC50 (Caspase-6): 36.8 µM (active) | IC50 (Large T antigen): > 100 µM (active) | EC50 [8]: 129 µM (active)

COc1ccc(C(=O)Nc2cccc(NC(=O)c3ccc(OC)c(OC)c3)n2)cc1OC
IC50 [9]: > 80 µM (inactive) | IC50 (H9c2): > 79 µM (inactive) | AC50 [10]: 7.99 µM (active)

CCOc1ccc2nc(NCCNC(=O)Nc3ccccc3)c(C#N)cc2c1
AC50 [10]: 19.5 µM (active)

O=C(Nc1c(-c2ccc3c(c2)OCO3)[nH][nH]c1=O)c1ccccc1
IC50 [11]: 9.43 µM (active) | AC50 (Caspase-6): 47.5 µM (active)

COc1ccccc1NC(=O)N1CCCCN2[C@@H](CO)[C@@H](c3ccc(C#Cc4ccccc4)cc3)[C@@H]2C1
AC50 [12]: 39 µM (active) | AC50 [13]: 19.3 µM (active) | AC50 (Paired box protein Pax-8): 4.9 µM (active) | AC50 [14]: 35 µM (active)

C[C@H]1CCCCO[C@@H](CN(C)Cc2ccc(C(F)(F)F)cc2)[C@@H](C)CN([C@@H](C)CO)C(=O)c2cc(NS(=O)(=O)c3ccc(F)cc3)ccc2O1
AC50 [12]: 39.4 µM (active) | AC50 [13]: 34.2 µM (active) | AC50 (Paired box protein Pax-8): 6.82 µM (active) | AC50 [14]: 51.3 µM (active)

N#C[C@@H]1[C@H](c2ccccc2C2=CCCC2)[C@H](CO)N1C(=O)C1CCOCC1
AC50 [15]: > 39 µM (inactive)

C[C@@H]1CCCCO[C@@H](CN(C)C(=O)Nc2cccc3ccccc23)[C@H](C)CN([C@@H](C)CO)C(=O)c2cc(NC(=O)CCC(F)(F)F)ccc2O1
AC50 [15]: 6.54 µM (active)

C[C@@H]1CCCCO[C@H](CN(C)S(=O)(=O)c2ccc(F)cc2)[C@@H](C)CN([C@@H](C)CO)C(=O)c2cc(N(C)C)ccc2O1
AC50 [15]: 2.17 µM (active)

COc1ccc(/C=C/C(=O)Nc2ccccc2C(=O)O)cc1OC
AC50 (Cytochrome P450 3A4): 10 µM (inconclusive) | AC50 [16]: 0.587 µM (active) | AC50 [17]: 0.594 µM (active)

Reference: ChEMBL document CHEMBL1201862, “PubChem BioAssay data set” (2004)
